The values that follow come from patent US20100041757A1, “N-ARYL-HYDROXYALKYLIDENE-CARBOXAMIDE COMPOUNDS AND THEIR USE” (priority 2006, published 2010).

The target in one assay is T1, TRP-M8 receptor (Homo sapiens, UniProt Q7Z2W7).
T1 construct: expressed in transfected cells
Nature of the assay: TRP-M8 receptor assay. The assay is classed as cell-based. The source says: Pain was defined by Sir Charles Sherrington as “the psychic adjunct of an imperative protective reflex”. Psychic events such as cooling, irritation, itch, and pain cannot be expressed by animals (animals cannot say “ouch” or that “it itches”) so the sensory effects of chemicals must be indirectly inferred. Receptor assays, based on cells transfected with the gene for TRP-M8 or TRP-A1, may be used as a model of sensory processes. […] But, as noted below, these assays give no information on how long and for what quality of sensations is occurring on human subjects. The best information on the pharmacological properties of these chemicals must therefore be derived from human experiment.
The sensations are more cold than cool, and have the sting and harshness of high concentrations of menthol. […] CPS-112 was therefore a disappointment in spite of its high potency on the receptor assay.

Assay [1] concerns skin of the upper lip (philtrum). Kind of assay: Cooling sensation bioassay, ointment applied to skin above the upper lip (philtrum) of test subjects. The assay is classed as in vivo, human. The settings on record: for qualitative aspects of sensation (coolness and not cold, duration at least three hours): topical, philtrum method; for duration of action: applied to the skin of test subjects. The source says: A reliable place for topical application is on the upper lip, above the vermillion border of the lips, on the philtrum, lateral to the philtrum until the nasolabial folds, and on the lower nostrils. This part of the face is known to be densely innervated with cold receptors, second only to the surface of eyeball. Tingling, cool and cold sensations may be experienced and rated for intensity. This test is quite accurate for predicting the cooling activity of candidate N-arylshydroxyalkylidene-cCarboxamide drugs, but most importantly, it also measures the duration of drug action on the sensory receptors. The duration of action is not measured in a receptor assay and is difficult to quantify on the tongue because of the dynamic fluid conditions in the oral cavity and the presence of taste factors that affect thermosensation.
For bioassay of […] on the skin, CPS-195 was stirred and dissolved in warm liquid Aquaphor® ointment to yield ointment concentrations of 0.25, 0.5, 1, and 2% wt/vol. After cooling, 50 to 80 mg of the solid ointment was placed on the tip of a plastic stick and applied to the skin above the upper lip, on the philtrum, and lateral to the philtrum up to the nasolabial folds, of test subjects and the onset and duration of cooling sensations recorded. Each of the compounds produce cooling on the skin of the upper lip with duration of action of more than 1 hour.
The intensity of the subjective skin sensation is rated as 0, 1, 2 or 3 with 0 as no change, 1 as slight coolness, cold, or tingling, 2 as clear cut signal of coolness, cold, or tingling, and 3 as robust cooling or cold. The interval for recording sensations is at 5 minute intervals, until two successive zeroes are obtained. The results are averaged values of 4 to 6 separate trials in the same individual. The data were plotted using SigmaPlot (Systat Software, Point Richmond Calif.) and a smoothing function with a negative exponential was used for analysis and statistical fit of the results.
The onset of drug action was taken as the time to reach 2 units of coolness intensity, and offset of drug action was the time when coolness intensity drops below 1.5, after previously surpassing 2 units. The duration of cooling action was defined as the offset time minus the onset time, which in this case averaged 2 minutes. The quality of the sensation was also noted, such as refreshing coolness, cold, or if the sensation was accompanied by irritation (stinging or burning). The quality of the sensation was not rated for intensity.

The test system of the next assay is oral cavity. Nature of the assay: Cooling sensation after placement on the dorsal surface of the tongue. Type of assay: in vivo, human. As to the method: The onset of cooling was 3 to 5 minutes, but once the effect was established, the entire oral cavity and pharyngeal surfaces (oro-, laryngo- and naso-pharynx) felt cool.
CPS-195 was formulated as a 3% wt/wt tablet in Ludipress®, a rapidly disintegrating direct compression excipient made by BASF Corp. The tablet size was 60 mg so each unit contained 1.8 mg of CPS-195. […] For example, applied onto the mucous membranes of the oral cavity it can soothe the discomforts of pharyngitis/laryngitis, oral mucositis, oral ulcers, and idiopathic facial pain. In the pharynx and upper airways, CPS-195 may be used to reduce or to treat cough, asthma, and chronic obstructive pulmonary disease. On the skin, CPS-195 can be used to treat the discomfort of severe acne, eczema, diabetic ulcers, and the like.

The mark [2] stands for this setting: 2 mg on the dorsal surface of the tongue.

T1 sequence (Q7Z2W7 whole entry): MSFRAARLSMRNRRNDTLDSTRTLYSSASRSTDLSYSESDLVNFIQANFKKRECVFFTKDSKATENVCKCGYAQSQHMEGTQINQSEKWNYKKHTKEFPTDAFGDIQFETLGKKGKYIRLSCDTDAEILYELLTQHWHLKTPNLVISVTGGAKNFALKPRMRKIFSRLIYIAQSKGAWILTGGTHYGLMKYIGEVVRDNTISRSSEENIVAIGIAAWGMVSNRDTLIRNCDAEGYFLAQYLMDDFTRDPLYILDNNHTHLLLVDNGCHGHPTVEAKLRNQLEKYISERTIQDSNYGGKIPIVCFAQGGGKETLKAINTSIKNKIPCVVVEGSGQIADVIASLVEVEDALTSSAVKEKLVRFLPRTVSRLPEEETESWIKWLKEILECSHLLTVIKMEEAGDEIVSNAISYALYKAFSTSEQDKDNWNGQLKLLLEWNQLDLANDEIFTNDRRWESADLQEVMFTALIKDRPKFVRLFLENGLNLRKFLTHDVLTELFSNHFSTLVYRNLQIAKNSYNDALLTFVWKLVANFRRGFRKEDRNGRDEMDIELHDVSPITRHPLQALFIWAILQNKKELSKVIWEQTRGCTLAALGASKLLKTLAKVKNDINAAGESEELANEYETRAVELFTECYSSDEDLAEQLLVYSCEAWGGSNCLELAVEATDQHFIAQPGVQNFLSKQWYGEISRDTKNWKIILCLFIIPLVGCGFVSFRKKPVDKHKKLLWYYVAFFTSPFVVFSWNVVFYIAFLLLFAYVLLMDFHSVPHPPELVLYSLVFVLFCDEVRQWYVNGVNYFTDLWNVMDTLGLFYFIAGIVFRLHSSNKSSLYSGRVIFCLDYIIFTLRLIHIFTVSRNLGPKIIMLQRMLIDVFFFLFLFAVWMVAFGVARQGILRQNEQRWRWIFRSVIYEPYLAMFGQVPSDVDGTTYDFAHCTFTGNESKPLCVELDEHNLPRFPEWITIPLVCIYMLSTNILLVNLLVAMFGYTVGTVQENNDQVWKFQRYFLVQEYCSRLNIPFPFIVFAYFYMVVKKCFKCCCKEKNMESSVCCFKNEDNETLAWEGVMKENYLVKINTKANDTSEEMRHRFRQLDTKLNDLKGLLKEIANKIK

Regarding `COc1ccc(NC(=O)[C@@H]2C[C@H](C)CC[C@H]2C(C)C)cc1` [WS-12, reference compound], the “active concentrations on the TRP-M8 receptor assay” value on TRP-M8 receptor is “sub-micromolar”. Besides, in assay [1] (2% preparation), the “time at which action is dissipated” value is reported as “one” and the “time at which duration of action peaks” value is 30 min. For the same molecule, the “sensation elicited on the philtrum and its environs” value in assay [1] (applied at 1 to 2%) was “strong cold sensations”. For the same molecule, in assay [1], the “qualitative aspects of sensation (coolness and not cold, duration at least three hours)” value is reported as “sensations of cold, but of brief duration”.

For `CCOC(=O)CNC(=O)[C@@H]1C[C@H](C)CC[C@H]1C(C)C` [WS-5, reference compound], the duration of action result in assay [1] was “less than one”.

Regarding `CC(C)[C@@H]1CC[C@@H](C)C[C@H]1C(=O)N(C)CC(O)c1cccc(O)c1` (stereo in doubt) [CPS-195, 2-isopropyl-5-methyl-cyclohexanecarboxylic acid (2′-hydroxy-2′-[3″-hydroxy-phenyl]-ethyl)-N-methyl-amide], the “duration of cooling sensation within the oral cavity” value in the assay with oral cavity (setting [2]) is listed as “over 4 hours”. For the same molecule, the “quality of cool/cold sensations” value with oral cavity (setting [2]) was “pleasant and not aversive”. For the same molecule, the duration of action with oral cavity (single dose of 2 mg applied to the surface of the tongue or on to the philtrum) was around 4 h. In addition, the “duration of action (coolness and cold on skin of the upper lip)” value in assay [1] (0.25% wt/vol in Aquaphor ointment) is 1.2 h; in assay [1] (0.5% wt/vol in Aquaphor ointment) it was 1.8 h; in assay [1] (1% wt/vol in Aquaphor ointment), 2.4 h; in assay [1] (2% wt/vol in Aquaphor ointment), 5.2 h. Moreover, in assay [1] (skin of the upper lip), the “potency compared to CPS-179, CPS-190 and CPS-192” value was “most potent”.

Take `CC(C)[C@@H]1CC[C@@H](C)C[C@H]1C(=O)Nc1ccc(S(=O)(=O)Nc2ncccn2)cc1` [CPS-125]: the “qualitative aspects of sensation (coolness and not cold, duration at least three hours)” value in assay [1] was “met”.

As to `CC1CCC(C(C)C)C(O)C1` (single isomer, unassigned; (-)) [(−)-menthol, reference compound], the duration of action result in assay [1] was “less than one”.
